Laboratory results taken from PubChem BioAssay AID330 (DTP/NCI, 2004).
Several values for one entry are separate records, joined by “and”; a condition that tells them apart may be missing. Identical values can stand only once. Toxic doses and inconclusive results are not listed. The calls were made as follows: active = survival T/C of 150% or more; inactive = T/C below 125% in these data.

Test system: P388 leukemia ip, CD2F1 mice, survival T/C
Assay: NCI In Vivo Anticancer Drug Screen. Data for tumor model P388 Leukemia (intraperitoneal) in CD2F1 (CDF1) mice
Conditions: endpoint: median survival time, higher = longer survival
Summary of the method: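 Mice carrying the transplanted tumor received test compound or vehicle. Survival was recorded in each group, and the value is the treated-group measurement divided by that of the vehicle-treated control group.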

[1] = dose: 50.0 mg/kg/injection, schedule: Q01DX005 (ip), vehicle: saline
[2] = dose: 100.0 mg/kg/injection, schedule: Q01DX005 (ip), vehicle: saline
[3] = dose: 60.0 mg/kg/injection, schedule: Q01DX005 (ip), vehicle: Klucel (hydroxypropylcellulose) (HPC)
[4] = dose: 120.0 mg/kg/injection, schedule: Q01DX005 (ip), vehicle: Klucel (hydroxypropylcellulose) (HPC)

Measured: T/C

O=C1CC(=O)N(CCc2ccncc2)C(=O)N1CCc1ccncc1
inactive: [1] 106 % of control | [2] 106 % of control

CC(C)C/C=N\N=C(N)N
inactive: [1] 100 % of control | [2] 100 % of control

COC1OC2COc3ccccc3OC2C(NC(N)=S)C1OC (configuration not stated)
inactive: [3] 105 % of control | [4] 105 % of control | dose: 240.0 mg/kg/injection, schedule: Q01DX005 (ip), vehicle: Klucel (hydroxypropylcellulose) (HPC) 105 % of control

C[CH2][Sn]([Cl])([CH2]C)[O][Sn]([CH2]C)([CH2]C)[O][Sn]([Cl])([CH2]C)[CH2]C
inactive: dose: 6.25 mg/kg/injection, schedule: Q01DX005 (ip), vehicle: Klucel (hydroxypropylcellulose) (HPC) 118 % of control and 121 % of control | dose: 12.5 mg/kg/injection, schedule: Q01DX005 (ip), vehicle: Klucel (hydroxypropylcellulose) (HPC) 113 % of control | dose: 25.0 mg/kg/injection, schedule: Q01DX005 (ip), vehicle: Klucel (hydroxypropylcellulose) (HPC) 111 % of control

c1ccc2nc(N3CCCCC3)c(N3CCCCCC3)nc2c1
inactive: dose: 50.0 mg/kg/injection, schedule: Q01DX005 (ip), vehicle: Klucel (hydroxypropylcellulose) (HPC) 97 % of control | dose: 100.0 mg/kg/injection, schedule: Q01DX005 (ip), vehicle: Klucel (hydroxypropylcellulose) (HPC) 100 % of control | dose: 200.0 mg/kg/injection, schedule: Q01DX005 (ip), vehicle: Klucel (hydroxypropylcellulose) (HPC) 99 % of control

CN1CCc2cc3c(c4c2C1C(O)c1ccccc1-4)OCO3 (configuration not stated)
inactive: dose: 0.12 mg/kg/injection, schedule: Q01DX009 (ip), vehicle: acid diluted with saline 109 % of control | dose: 0.25 mg/kg/injection, schedule: Q01DX009 (ip), vehicle: acid diluted with saline 97 % of control | dose: 2.0 mg/kg/injection, schedule: Q01DX009 (ip), vehicle: acid diluted with saline 92 % of control | dose: 4.0 mg/kg/injection, schedule: Q01DX009 (ip), vehicle: acid diluted with saline 108 % of control

OC1(c2ccc(F)cc2)CCNCC1
inactive: [3] 104 % of control | [4] 92 % of control

COc1ccc2cc3cnccc3cc2c1OC
inactive: dose: 12.5 mg/kg/injection, schedule: Q01DX009 (ip), vehicle: water 99 % of control | dose: 25.0 mg/kg/injection, schedule: Q01DX009 (ip), vehicle: water 97 % of control | dose: 50.0 mg/kg/injection, schedule: Q01DX009 (ip), vehicle: water 94 % of control | dose: 100.0 mg/kg/injection, schedule: Q01DX009 (ip), vehicle: water 102 % of control | dose: 200.0 mg/kg/injection, schedule: Q01DX009 (ip), vehicle: water 96 % of control

O=C(c1ccccc1)N1CCCSC1=S
inactive: dose: 60.0 mg/kg/injection, schedule: Q01DX005 (ip), vehicle: saline with Tween-80 101 % of control | dose: 120.0 mg/kg/injection, schedule: Q01DX005 (ip), vehicle: saline with Tween-80 105 % of control | dose: 240.0 mg/kg/injection, schedule: Q01DX005 (ip), vehicle: saline with Tween-80 104 % of control

CC(=O)C(C)C(C)=O
inactive: dose: 6.25 mg/kg/injection, schedule: Q01DX009 (ip), vehicle: saline with Tween-80 97 % of control | dose: 12.5 mg/kg/injection, schedule: Q01DX009 (ip), vehicle: saline with Tween-80 93 % of control | dose: 25.0 mg/kg/injection, schedule: Q01DX009 (ip), vehicle: saline with Tween-80 100 % of control | dose: 50.0 mg/kg/injection, schedule: Q01DX009 (ip), vehicle: saline with Tween-80 107 % of control | dose: 100.0 mg/kg/injection, schedule: Q01DX009 (ip), vehicle: saline with Tween-80 108 % of control | dose: 200.0 mg/kg/injection, schedule: Q01DX009 (ip), vehicle: saline with Tween-80 103 % of control | dose: 400.0 mg/kg/injection, schedule: Q01DX009 (ip), vehicle: saline with Tween-80 110 % of control

CCCn1c2nc(=O)n(C)c(=O)c-2cc2ccccc21
inactive: dose: 10.0 mg/kg/injection, schedule: Q01DX009 (ip), vehicle: saline with Tween-80 105 % of control | dose: 20.0 mg/kg/injection, schedule: Q01DX009 (ip), vehicle: saline with Tween-80 116 % of control | dose: 40.0 mg/kg/injection, schedule: Q01DX009 (ip), vehicle: saline with Tween-80 111 % of control
